Laboratory results from patent publication US9730944B2, “Antiviral activity of novel bicyclic heterocycles” (priority 2010, dated 2017).
In brackets after ≈: the same amount, converted by molar mass. Read-outs that look alike come from different tables or passages of the source.

Experiments:
[1] = molecular target: purine nucleoside phosphorylase (Homo sapiens, UniProt P00491); settings: J. C. Sircar et al. J. Med. Chem. 1986, 29, 1804-1806; cited from earlier work
[2] = system: genotype 1a H-77 replicon; assay: HCV genotype 1a replicon potency in GLuc-1 cells, bioluminescence; assay type: cell-based; settings: 72 hours, average of two or more independent experiments ± std. dev, read-out: Stable replicon cell lines EC50 (μM) Genotype 1a (Gluc-1)
genotype 1b replicon = assay: HCV genotype 1b replicon potency in R-luc cells, bioluminescence; assay type: cell-based; settings: 72 hours, average of two or more independent experiments ± std. dev, read-out: Stable replicon cell lines EC50 (μM) Genotype1b (R-luc)
[3] = system: infectious genotype 2a virus (a J6/JFH-1 chimera); assay: JFH-1 HCV-2a virus assay in Lunet-CD81 cells, NS3 expression readout; assay type: cell-based
HIV-1 strain IIIB = assay: Inhibition of replication of HIV-1 (IIIB strain) in MT-4 cells, MTT assay; assay type: cell-based; settings: read-out: EC50 (μM) HIV-1 (IIIB)
hRV-42 = assay: Rhinovirus type 42 antiviral assay in Hela Rh cells, MTS readout; assay type: cell-based, Human rhinovirus; settings: Human rhinovirus sp., HRV42, HeLa Rh, Hela Rh cells; read-out: hRV-42 EC50
[4] = Cytotoxicity in HCV-1a replicon cells, Promega CellTiter-Glo cell viability assay
hRV-2 = assay: Rhinovirus type 2 antiviral assay in Hela Rh cells, MTS readout; assay type: cell-based, Human rhinovirus; settings: Rhinovirus A, HRV2, HeLa Rh, Hela Rh cells; read-out: hRV-2 EC50
hRV-85 = assay: Rhinovirus type 85 antiviral assay in Hela Rh cells, MTS readout; assay type: cell-based, Human rhinovirus; settings: Human rhinovirus sp., HRV85, HeLa Rh, Hela Rh cells; read-out: hRV-85 EC50
hRV-45 = assay: Rhinovirus type 45 antiviral assay in Hela Rh cells, MTS readout; assay type: cell-based, Human rhinovirus; settings: Human rhinovirus sp., HRV45, HeLa Rh, Hela Rh cells; read-out: hRV-45 EC50
hRV-14 = assay: Rhinovirus type 14 antiviral assay in Hela Rh cells, MTS readout; assay type: cell-based, Human rhinovirus; settings: Rhinovirus B, HRV14, HeLa Rh, Hela Rh cells; read-out: hRV-14 EC50
[5] = Cytostatic/cytotoxic effect in Hela Rh cells (rhinovirus methodology, MTS); settings: human, CC50, Hela Rh cells
hRV-63 = assay: Rhinovirus type 63 antiviral assay in Hela Rh cells, MTS readout; assay type: cell-based, Human rhinovirus; settings: Human rhinovirus sp., HRV63, HeLa Rh, Hela Rh cells; read-out: hRV-63 EC50
HIV-2 strain (ROD) = assay: Inhibition of replication of HIV-2 (ROD strain) in MT-4 cells, MTT assay; assay type: cell-based; settings: Human immunodeficiency virus 2, MT4, 120 h, read-out: EC50 (μM) HIV-2 (ROD)
poliovirus (PV type 2) = assay: microbe, parasite or virus in culture; assay type: cell-based; settings: Enterovirus C, read-out: PV-2 EC50
hRV-41 = assay: Rhinovirus type 41 antiviral assay in Hela Rh cells, MTS readout; assay type: cell-based, Human rhinovirus; settings: Human rhinovirus sp., HRV41, HeLa Rh, Hela Rh cells; read-out: hRV-41 EC50
poliovirus (PV type 1) = assay: microbe, parasite or virus in culture; assay type: cell-based; settings: Enterovirus C, read-out: PV-1 EC50
hRV-15 = assay: Rhinovirus type 15 antiviral assay in Hela Rh cells, MTS readout; assay type: cell-based, Human rhinovirus; settings: Human rhinovirus sp., HRV15, HeLa Rh, Hela Rh cells; read-out: hRV-15 EC50
hRV-72 = assay: Rhinovirus type 72 antiviral assay in Hela Rh cells, MTS readout; assay type: cell-based, Human rhinovirus; settings: Human rhinovirus sp., HRV72, HeLa Rh, Hela Rh cells; read-out: hRV-72 EC50
hRV-86 = assay: Rhinovirus type 86 antiviral assay in Hela Rh cells, MTS readout; assay type: cell-based, Human rhinovirus; settings: Human rhinovirus sp., HRV86, HeLa Rh, Hela Rh cells; read-out: hRV-86 EC50
hRV-9 = assay: Rhinovirus type 9 antiviral assay in Hela Rh cells, MTS readout; assay type: cell-based, Human rhinovirus; settings: Human rhinovirus sp., HRV9, HeLa Rh, Hela Rh cells; read-out: hRV-9 EC50
in vitro [6] = settings: human
hRV-39 = assay: Rhinovirus type 39 antiviral assay in Hela Rh cells, MTS readout; assay type: cell-based, Human rhinovirus; settings: Human rhinovirus sp., HRV39, HeLa Rh, Hela Rh cells; read-out: hRV-39 EC50
hRV-29 = assay: Rhinovirus type 29 antiviral assay in Hela Rh cells, MTS readout; assay type: cell-based; settings: Human rhinovirus sp., HRV29, HeLa Rh, Hela Rh cells; read-out: hRV-29 EC50
[7] = system: genotype 1a H-77 replicon; assay: HCV-1a replicon potency in RLuc-1 cells, bioluminescence; assay type: cell-based; settings: for HCV-1a Replicon Selectivity Index: CC50/EC50, genotype 1a replicon
in vitro [8] = settings: African green monkey, PV CC50
in vitro [9] = settings: human, PV CC50
hRV-70 = assay: Rhinovirus type 70 antiviral assay in Hela Rh cells, MTS readout; assay type: cell-based, Human rhinovirus; settings: Human rhinovirus sp., HRV70, HeLa Rh, Hela Rh cells; read-out: hRV-70 EC50
poliovirus (PV type 3) = assay: microbe, parasite or virus in culture; assay type: cell-based; settings: Enterovirus C, read-out: PV-3 EC50
[10] = Cytotoxicity in G-luc replicon cells, Promega CellTiter-Glo cell viability assay; settings: G-luc (GLuc-1) HCV genotype 1a H-77 replicon cells
RLuc-1 cells = assay: Cytotoxicity in HCV-1a replicon cells, Promega CellTiter-Glo cell viability assay; settings: read-out: HCV-1a Replicon CC50; replicon cells, 72 hours, CellTiter-Glo
[11] = J6/JFH-1 chimera, MOI of 1, 72 hours, NS3 readout, read-out: Genotype 2a Virus (Lunet-CD81) EC50
[12] = MT-4 cells, MTT assay, five days after infection, 50% protection from cytopathic effect
[13] = Hepatitis C virus, 72 h, read-out: HCV-1a Replicon EC50 (μM)
[14] = Hepatitis C virus, 72 h, read-out: Genotype 2a Virus (Lunet-CD81) EC50 (μM)
[15] = RLuc-1 cells, 72 hours, bioluminescence, read-out: HCV-1a Replicon EC50

Chain of purine nucleoside phosphorylase (P00491 whole entry, species assumed): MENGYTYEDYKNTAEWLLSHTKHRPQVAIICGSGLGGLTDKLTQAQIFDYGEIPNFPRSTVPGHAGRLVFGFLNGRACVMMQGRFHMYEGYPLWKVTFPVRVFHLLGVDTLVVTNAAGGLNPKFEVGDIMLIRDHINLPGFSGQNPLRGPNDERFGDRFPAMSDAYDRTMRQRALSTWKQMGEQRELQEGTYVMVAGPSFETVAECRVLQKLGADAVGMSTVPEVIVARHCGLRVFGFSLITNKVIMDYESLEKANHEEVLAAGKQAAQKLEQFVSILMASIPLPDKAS

Nc1nc2sc(N)nc2c(=O)[nH]1 [2,5-Diaminothiazolo[5,4-d]pyrimidin-7(6H)-one]
inhibitor of purine nucleoside phosphorylase [1]: weak inhibitor

C[C@@]1(O)[C@H](O)[C@@H](CO)O[C@H]1n1cnc2c(N)ncnc21 [2′CMA]
EC50 [2]: 0.23 ± 0.3 µM | EC50 (genotype 1b replicon): 0.3 ± 0.02 µM | EC50 [3, 11]: 0.3 ± 0.03 µM

COCCCNc1nc(N)nc2sc(-c3ccc(F)cc3)nc12 [Example 32, 2-(4-fluorophenyl)-N-7-(3-methoxypropyl)thiazolo[5,4-d]pyrimidine-5,7-diamine]
EC50 (HIV-1 strain IIIB; [12]): > 349 µM | CC50 (MT-4 cells): > 365000 nM

Nc1nc(N2CCN(C(=O)COc3ccc(Br)cc3)CC2)c2nc(CCc3ccc(F)cc3)sc2n1 [Example 52, 1-(4-(5-amino-2-(4-fluorophenethyl)thiazolo[5,4-d]pyrimidin-7-yl)piperazin-1-yl)-2-(4-bromophenoxy)ethanone]
EC50 (hRV-42): > 50 µg/mL | CC50 at 72 h [4]: > 44400 nM | EC50 (hRV-2): 15.7 µg/mL (≈ 27.5 µM) | EC50 (hRV-85): 21.9 µg/mL (≈ 38.4 µM) | EC50 (hRV-45): > 50 µg/mL | EC50 (hRV-14): > 50 µg/mL | CC50 [5]: > 50 µg/mL | EC50 (HIV-1 strain IIIB; Human immunodeficiency virus 1, IIIB, MT4, 120 h, MT-4 cells, MTT assay, five days after infection, 50% protection from cytopathic effect): 2.71 µM | EC50 (hRV-63): > 50 µg/mL | EC50 (HIV-2 strain (ROD); [12]): > 95.7 µM | EC50 (poliovirus (PV type 2); HeLa): 0.38 µg/mL (≈ 0.665 µM) | EC50 (poliovirus (PV type 2); Vero): 0.1 µg/mL (≈ 0.175 µM) | EC50 (hRV-41): > 50 µg/mL | EC50 (poliovirus (PV type 1); HeLa): 0.39 µg/mL (≈ 0.682 µM) | EC50 (poliovirus (PV type 1); Vero): 0.12 µg/mL (≈ 0.21 µM) | EC50 (hRV-15): > 50 µg/mL | EC50 (hRV-72): > 50 µg/mL | EC50 (hRV-86): > 50 µg/mL | EC50 (hRV-9): > 50 µg/mL | CC50 (in vitro [6]): 95700 nM | EC50 (hRV-39): 30.7 µg/mL (≈ 53.7 µM) | EC50 (hRV-29): > 50 µg/mL | HCV-1a Replicon Selectivity Index [7]: >1.3 | EC50 [7, 13]: 35.3 µM | CC50 (in vitro [8]): 111 µg/mL (≈ 195 µM) | CC50 (in vitro [9]): > 50 µg/mL | EC50 (hRV-70): > 50 µg/mL | EC50 (poliovirus (PV type 3); HeLa): > 50 µg/mL | EC50 (poliovirus (PV type 3); Vero): 0.49 µg/mL (≈ 0.857 µM)

Nc1nc(N2CCN(C(=O)COc3ccc(Cl)cc3)CC2)c2nc(C3CC3)sc2n1 [Example 119, 5-amino-2-cyclopropyl-7-[4-(4-chlorophenoxyacetyl)piperazin-1-yl]-thiazolo[5,4-d]pyrimidine]
EC50 ([2]; Hepatitis C virus): 0.422 ± 0.104 µM | CC50 at 72 h [4]: > 44400 nM | CC50 at 72 h [10]: > 50000 nM | EC50 (genotype 1b replicon; Hepatitis C virus): 0.341 ± 0.024 µM | EC50 (poliovirus (PV type 2); HeLa): 1.21 µg/mL (≈ 2.72 µM) | EC50 (poliovirus (PV type 2); Vero): 0.33 µg/mL (≈ 0.742 µM) | EC50 (poliovirus (PV type 1); HeLa): 24.1 µg/mL (≈ 54.1 µM) | EC50 (poliovirus (PV type 1); Vero): 0.34 µg/mL (≈ 0.764 µM) | EC50 [3, 14]: > 50 µM | HCV-1a Replicon Selectivity Index [7]: >87 | EC50 [7, 13]: 0.5 µM | CC50 (in vitro [8]): > 150 µg/mL | CC50 (in vitro [9]): > 50 µg/mL | EC50 (poliovirus (PV type 3); HeLa): > 50 µg/mL | EC50 (poliovirus (PV type 3); Vero): 12.5 µg/mL (≈ 28 µM)

Nc1nc(NCc2ccccc2)c2cc(-c3ccc(F)cc3)sc2n1 [Example 327, 2-amino-4-N-benzylamino-6-(4-fluorophenyl)-thieno[2,3-d]pyrimidine]
CC50 (RLuc-1 cells): 23200 nM | EC50 [7, 15]: 38.6 µM

CCOc1nc(N)nc2sc(-c3ccc(F)cc3)cc12 [Example 363, 4-ethoxy-6-(4-fluorophenyl)thieno[2,3-d]pyrimidin-2-amine]
EC50 (HIV-1 strain IIIB; Human immunodeficiency virus 1, IIIB, MT4, 120 h): ≥ 432 µM | EC50 (HIV-2 strain (ROD)): ≥ 432 µM | melting point: 142 °C | CC50 (in vitro [6]): 432000 nM

CCCc1nc2c(N3CCN(C(=O)COc4ccc(Cl)cc4)CC3)nc(N)nc2[nH]1 [Example 397, 1-(4-(2-amino-8-propyl-9H-purin-64)piperazin-1-yl)-2-(4-chlorophenoxy)ethanone]
EC50 [2]: 0.181 ± 0.108 µM | CC50 (RLuc-1 cells): > 44400 nM | EC50 (genotype 1b replicon): 0.14 ± 0.11 µM | EC50 [3, 11]: 31.2 µM | EC50 [7, 15]: 1.1 µM

Nc1nc(N2CCN(C(=O)COc3ccc(Cl)cc3)CC2)c2nc(C3CC3)[nH]c2n1 [Example 398, 1-(4-(2-amino-8-cyclopropyl-9H-purin-6-yl)piperazin-1-yl)-2-(4-chlorophenoxy)ethanone]
EC50 ([2]; Hepatitis C virus): 0.274 ± 0.04 µM | CC50 at 72 h [4]: > 44400 nM | CC50 at 72 h [10]: > 50000 nM | EC50 (genotype 1b replicon; Hepatitis C virus): 0.192 ± 0.008 µM | EC50 [3, 14]: 29 µM | HCV-1a Replicon Selectivity Index [7]: >143 | EC50 [7, 13]: 0.3 µM

Cc1nc2c(N3CCN(C(=O)COc4ccc(Cl)cc4)CC3)nc(N)nc2[nH]1 [Example 400, 1-(4-(2-amino-8-methyl-9H-purin-6-yl)piperazin-1-yl)-2-(4-chlorophenoxy)ethanone]
EC50 ([2]; Hepatitis C virus): 0.125 ± 0.035 µM | CC50 at 72 h [4]: > 44400 nM | CC50 at 72 h [10]: > 50000 nM | EC50 (genotype 1b replicon; Hepatitis C virus): 0.188 ± 0.012 µM | EC50 [3, 14]: > 50 µM | HCV-1a Replicon Selectivity Index [7]: >164 | EC50 [7, 13]: 0.3 µM

Nc1nc(N2CCN(C(=O)COc3ccccc3)CC2)c2nc(-c3ccc(F)cc3)[nH]c2n1 [Example 401, 1-(4-(2-amino-8-(4-fluorophenyl)-9H-purin-6-yl)piperazin-1-yl)-2-phenoxyethanone]
EC50 ([2]; Hepatitis C virus): 0.059 ± 0.008 µM | CC50 at 72 h [4]: 20400 nM | CC50 at 72 h [10]: > 50000 nM | EC50 (genotype 1b replicon; Hepatitis C virus): 0.081 ± 0.041 µM | EC50 [3, 14]: 15.4 µM | HCV-1a Replicon Selectivity Index [7]: 26.5 | EC50 [7, 13]: 0.8 µM

CSc1nc2c(N3CCN(C(=O)COc4ccc(Cl)cc4)CC3)nc(N)nc2n1C [Example 428, 1-(4-(2-amino-9-methyl-8-(methylthio)-9H-purin-6-yl)piperazin-1-yl)-2-(4-chlorophenoxy)ethanone]
EC50 ([2]; Hepatitis C virus): 0.056 ± 0.002 µM | CC50 at 72 h [4]: > 44400 nM | CC50 at 72 h [10]: > 50000 nM | EC50 (genotype 1b replicon; Hepatitis C virus): 0.005 ± 0.002 µM | EC50 [3, 14]: > 50 µM | HCV-1a Replicon Selectivity Index [7]: >888 | EC50 [7, 13]: 0.05 µM
